Measured values published in US9968634B2, “Techniques and systems for treatment of neuropathic pain and other indications” (priority 2012, dated 2018).

Columns and labels:
[1] = test system: capillary circulation of the skin; test: Laser Doppler study of creams in five human subjects, Example 7; assay type: in vivo; settings: positive control formulation, 0.1% methyl nicotinate
Excerpt: This example illustrates delivery of nitric oxide formulations to five human subjects, using procedures and formulations similar to those discussed in Example 5. Each person served as their own control for the testing. A Moor Instruments Laser Doppler was used to determine circulation. […] The formulations used produce positive, almost immediate results when applied to the skin which, in these studies, was manifested by vasodilatation of the cutaneous vascular system.
For each subject, the following creams were applied: a negative control formulation (containing no NO), 0.010 gram of a 10,000 ppm NO formulation, 0.020 gram of a 10,000 ppm NO formulation, and a positive control formulation containing 0.1% methyl nicotinate. The formulations were prepared using procedures similar to those discussed in Example 1.

[2] = test system: micro-capillary blood flow to skin; test: Laser Doppler study with closed Hilltop chamber on forearm, Example 5; assay type: in vivo, human; settings: applied to the skin at 1/10% in alcohol
Excerpt: The formulation used in these studies contained nitric oxide dispersed in a lipid matrix. […] Nitric oxide is a very rapid acting molecule, and these studies used a system that employed laser Doppler with a covered chamber. The formulation was placed into the chamber and then attached to the skin by an adhesive layer on the covering. This provided a stable measuring device as determined by multiple normal evaluations of the capillary blood flow without treatment of nitric oxide.
A known positive control, methyl nicotinate, was applied to the skin at a concentration of 1/10% in alcohol. […] The vascular dynamics are such that when the blood vessels dilate physical parameters follow Bernoulli's law. […] The laser Doppler device accurately measured these parameters.
In these studies, the participants were healthy females aged 30 to 55 years. They were in good health as determined by the medical history and were not taking any prescription medications. All study participants read and signed the informed consent statement prior to any study procedures being performed. […]
A Moor Instruments DRT4 Laser Doppler Blood Flow Monitor (Devon, England) was used in these studies. The laser Doppler technique measured blood flow in the microcapillaries of the skin that are close to the skin surface and the blood flow in underlying arterioles and venules that help to regulate skin temperature. […]

Structure (SMILES): COC(=O)c1cccnc1 [methyl nicotinate]
- vasodilatation (laser Doppler) [1]: vasodilatation was observed
- laser Doppler response of positive control [2]: rapid response typical of the vasodilator
